Values quoted from earlier work as cited in patent US20170333338A1, “SUSTAINED AND REVERSIBLE ORAL DRUG DELIVERY SYSTEMS” (The Children's Medical Center Corporation, priority 2014, published 2017).

## NCCC(O)(P(=O)(O)O)P(=O)(O)O [Pamidronate]
  highest pKa of the phosphate groups: 10.18
